Assays:
[1] = In vivo pharmacokinetics after oral (intragastric) administration to rats; details: rat
Method: Derivative 2 was administered to overnight-fasted male Wistar rats from the facility of the Department of Biomedical Sciences as a single intragastric dose (88 µmol/kg, dissolved in 250 µL water). Blood samples were obtained by the tail bleeding technique: before drug administration, rats were anesthetised with isoflurane and the tip of the tail was cut off; blood samples (80–100 µL each) were then taken from the tail tip at different time points after drug administration. Blood was collected in heparinised tubes, kept in ice and treated as described in [90] within 10 min.
For quantification purposes we assumed the same absorption coefficient.

[2] = test system: explanted rat jejunum segments; assay: Permeation across explanted rat jejunum segments in Ussing-type chambers (ex vivo)
Method: We assayed transport of the derivatives across explanted rat jejunum segments using Ussing-type chambers.
Intestine was excised from 18 h fasted rats and transferred into a saline solution (154 mM NaCl in water) at 37 °C. The jejunum was cut into 1 cm long strips, opened longitudinally, rinsed free of luminal content and mounted in Ussing-type chambers. Apical and basolateral compartments were filled with 1 mL each of oxygenated HEPES buffer (248 mM NaCl, 55.3 mM glucose, 50 mM NaHCO3, 9.9 mM KCl, 1.9 mM MgSO4, 40 mM HEPES, pH 6.8), and incubated in a water bath at 37 °C until all chambers were assembled (approximately 20 min). The buffer was then removed and substituted with 1 mL of a 20 µM solution (in the same buffer) of the compound to be tested on the apical side (dilution from a 20 mM stock solution), and with 1 mL of fresh HEPES buffer on the basolateral one. […] During the experiment, oxygen was continuously bubbled in each basolateral compartment. […]
Samples (2 µL) were analyzed by HPLC/UV (1290 Infinity LC System, Agilent Technologies) using a reverse phase column (Zorbax RRHD Eclipse Plus C18, 1.8 µm, 50 x 2.1 mm i.d.; Agilent Technologies) and a UV diode array detector (190-500 nm). […]

## CN(CCCCOC1C(O)C(O)OC(CO)C1O)C(=O)Oc1ccc(C=Cc2cc(OC(=O)N(C)CCCCOC3C(O)C(O)OC(CO)C3O)cc(OC(=O)N(C)CCCCOC3C(O)C(O)OC(CO)C3O)c2)cc1 [derivative 2, 3,4',5-Tri-[α/β-D-glucopyranose-3-(4-N-methyl-N-butoxy)]-resveratrol carbamate]
[1]; male, Wistar, whole blood, po, 88 umol/kg, single intragastric dose 88 µmol/kg, blood, read-out: time of maximum blood levels (converted)
  Tmax: ~1 h
[1]; gavage 88 µmol/kg, during the 4 hours following administration
  concentration of the derivative in the bloodstream: low concentrations
[1]; oral, also basolateral chamber ex vivo
  resveratrol and its common metabolites in blood after oral administration (hydrolysis of carbamate groups): Neither resveratrol nor its common metabolites were present in detectable amounts
[2]; 20 µM apical, 2.5 h
  species detected in the basolateral chamber: only the intact derivative was detected
[2]; comparison among conditions
  extent of translocation with SGLT-1/GLUT-2 inhibitors (phlorizin, phloretin, cytochalasin B), low glucose, non-fasted or glucose-fed rats: not to differ significantly

From paper PMC6271179 (Molecules, 2014)
